# Publication PMC6731142 (Cell, 2019)
# Bridge positions count the residues as written; N and C are the ends. Ends that are not written are not given here. * marks the point of attachment. Biotin = O=C1N[C@H]2[C@H](CS[C@H]2CCCCC(=O)*)N1
# B1: Biotin-GSGS-WaTx (N-terminal biotinylated Wasabi Receptor Toxin) (peptide)
# peptide: GSGSASPQQAKYCYEQCNVNKVPFDQCYQMCSPLERS
# modifications: biotin on the N-terminus; directed disulfide bonds C9-C27 and C13-C23 (WaTx numbering)
# How the values were obtained:
# [1] = tested on: rat snake TRPA1 (rsTRPA1); conditions: ref Banzawa et al., 2014; McNamara et al., 2007; cited from earlier work
# [2] = tested on: cultured rat trigeminal neurons; experiment: CGRP release ELISA from cultured trigeminal neurons; assay type: cell-based; conditions: WaTx 10 μM
# mouse hindpaw [3] = experiment: Neurogenic inflammation: paw edema and Evan's Blue Dye extravasation; assay type: in vivo; conditions: intrathecally capsaicin ablated mice; AITC 0.75% v/v
# mouse hindpaw [4] = conditions: for Acute nocifensive behavior in capsaicin-ablated animals: intrathecally capsaicin ablated mice
# hTRPA1 [5] = molecular target: T1, hTRPA1 (Homo sapiens, UniProt O75762); assay type: cell-based; conditions: human TRPA1-transfected HEK cells, whole-cell; mean ± SEM; p < 0.05 unpaired two-tailed t-test
# mouse hindpaw [6] = experiment: Thermal; assay type: in vivo; conditions: for Mechanical hypersensitivity in capsaicin-ablated animals: intrathecally capsaicin ablated mice, n = 6–8 mice/treatment; for Hypersensitivity to thermal and mechanical stimuli: wild-type mice, intraplantar injection
# hTRPA1 [7] = molecular target: T1, hTRPA1; experiment: Single-channel cell-attached and excised-patch recordings of TRPA1 in HEK cells; assay type: cell-based; conditions: for Effect on divalent over monovalent cation selectivity: excised patches, AITC 50 μM, n = 3–7 patches/condition; for Effect on divalent over monovalent cation selectivity / Duration of evoked channel openings / Average latency to first channel opening: WaTx 100 nM; for Duration of evoked channel openings / Average latency to first channel opening: inside-out patches, AITC 10 μM; for Duration of evoked channel openings: Vh = −40 mV, n = 6–8 patches/treatment; for Average latency to first channel opening: n = 13–14 patches/treatment
# human TRPA1 = assay type: cell-based; conditions: WaTx 1 μM, whole-cell, n = 3–9 cells/construct
# hTRPA1 [8] = molecular target: T1, hTRPA1; assay type: binding; conditions: wild-type hTRPA1-transfected HEK293 membranes
# [9] = tested on: trigeminal sensory neurons; experiment: Ca2+ imaging of cultured mouse trigeminal sensory neurons; assay type: cell-based
# rsTRPA1 = assay type: binding, Texas rat snake (Elaphe obsoleta lindheimeri); conditions: gain-of-function mutant A627P
# [10] = tested on: rat snake TRPA1 (rsTRPA1); experiment: Whole-cell patch-clamp recordings of rat snake TRPA1 in transfected HEK cells; assay type: cell-based, Texas rat snake (Elaphe obsoleta lindheimeri)
# [11] = molecular target: human TRPA1, full-length wild type (human, UniProt O75762 1-1119); experiment: BLI
# Chain of human TRPA1, full-length wild type (O75762 whole entry): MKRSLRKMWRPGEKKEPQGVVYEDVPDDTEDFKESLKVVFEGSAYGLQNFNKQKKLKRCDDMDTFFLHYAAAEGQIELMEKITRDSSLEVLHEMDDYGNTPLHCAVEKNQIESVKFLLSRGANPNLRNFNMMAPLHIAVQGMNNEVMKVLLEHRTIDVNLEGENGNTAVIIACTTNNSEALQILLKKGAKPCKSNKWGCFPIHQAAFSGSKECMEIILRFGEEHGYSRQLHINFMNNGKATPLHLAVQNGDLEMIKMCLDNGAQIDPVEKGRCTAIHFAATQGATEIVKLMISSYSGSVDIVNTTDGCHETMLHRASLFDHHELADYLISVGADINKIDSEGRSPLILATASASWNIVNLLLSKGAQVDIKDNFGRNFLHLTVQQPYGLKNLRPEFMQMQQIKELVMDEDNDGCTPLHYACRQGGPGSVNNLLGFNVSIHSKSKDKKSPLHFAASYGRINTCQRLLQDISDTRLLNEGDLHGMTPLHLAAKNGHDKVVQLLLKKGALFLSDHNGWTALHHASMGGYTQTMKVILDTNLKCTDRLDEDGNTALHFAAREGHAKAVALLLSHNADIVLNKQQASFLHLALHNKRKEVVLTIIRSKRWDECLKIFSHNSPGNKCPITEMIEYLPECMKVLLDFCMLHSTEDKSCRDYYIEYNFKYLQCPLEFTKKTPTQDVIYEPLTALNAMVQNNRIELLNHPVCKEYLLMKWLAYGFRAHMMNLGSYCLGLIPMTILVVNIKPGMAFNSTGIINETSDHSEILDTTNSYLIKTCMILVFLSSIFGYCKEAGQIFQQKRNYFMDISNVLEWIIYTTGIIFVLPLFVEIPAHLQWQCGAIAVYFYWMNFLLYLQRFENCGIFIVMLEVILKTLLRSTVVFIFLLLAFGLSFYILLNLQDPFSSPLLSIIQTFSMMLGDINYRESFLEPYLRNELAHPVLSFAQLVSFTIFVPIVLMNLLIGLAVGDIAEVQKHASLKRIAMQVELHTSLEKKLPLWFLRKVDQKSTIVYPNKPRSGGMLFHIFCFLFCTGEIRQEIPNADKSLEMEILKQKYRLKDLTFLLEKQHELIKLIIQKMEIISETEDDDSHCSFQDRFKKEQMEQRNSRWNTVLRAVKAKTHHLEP
# T1 sequence (O75762 whole entry): as above
molecule,measurement,setting,value
CCC(=N\O)/C(C)=C/c1ccc(F)cc1 [A 967079],Inhibitor effectiveness against rsTRPA1,[1],ineffective
"C=CCN=C=S [AITC, allyl isothiocyanate, reference compound]","CGRP release, physiological extracellular Ca2+","[2]; 2mM extracellular Ca2+, AITC 100 μM, 5 min at RT",promoted robust CGRP release
same,Paw swelling in capsaicin-ablated animals,mouse hindpaw [3],produced swelling
same,Acute nocifensive behavior in capsaicin-ablated animals,mouse hindpaw [4],not acute nocifensive behavior
same,τoff (reversal of membrane currents upon washout),hTRPA1 [5],27 ± 5 s
same,Mechanical hypersensitivity in capsaicin-ablated animals,mouse hindpaw [6],developed mechanical hypersensitivity (albeit with a delayed onset)
same,Hypersensitivity to thermal and mechanical stimuli,mouse hindpaw [6],substantial and long-lasting hypersensitivity
same,Effect on divalent over monovalent cation selectivity,hTRPA1 [7],small but significant increase in divalent cation selectivity
same,Duration of evoked channel openings,hTRPA1 [7],≤ 5 ms
same,Average latency to first channel opening,hTRPA1 [7],dramatically shortened
CC(C)c1ccc(NC(=O)Cn2cnc3c2c(=O)n(C)c(=O)n3C)cc1 [HC 030031],Inhibitor effectiveness against rsTRPA1,[1],effective
"WaTx (Biotin-GSGSASPQQAKYCYEQCNVNKVPFDQCYQMCSPLERS; disulfide 13-31, 17-27; not fully specified)","CGRP release, raised extracellular Ca2+",[2]; 20mM extracellular Ca2+ (10-fold),able to promote CGRP release
same,Nocifensive (pain-related) behavior,"mouse hindpaw [4]; 20 μL intraplantar to hindpaw, wild-type mice, scored 20 min","vigorous, dose-dependent nocifensive (pain-related) behavior"
same,Nocifensive and c-Fos responses in TRPA1-deficient mice,mouse hindpaw [4]; TRPA1−/− mice,not observed
same,c-Fos immunoreactivity in superficial laminae of spinal cord dorsal horn,"mouse hindpaw [4]; after hindpaw injection, wild-type mice, n = 22–39 sections/group",induction of c-Fos immunoreactivity
same,Acute nocifensive behavior in capsaicin-ablated animals,mouse hindpaw [4],lacked acute nocifensive behavior
same,τoff (reversal of membrane currents upon washout),hTRPA1 [5],4.6 ± 1.2 s
same,"Toxin sensitivity of hTRPA1 mutants P622A, M634L, T646P",human TRPA1,abrogated toxin sensitivity
same,Binding of hTRPA1 membranes,hTRPA1 [8],Robust binding
same,Mechanical hypersensitivity in capsaicin-ablated animals,mouse hindpaw [6],failed to exhibit any signs of mechanical hypersensitivity
same,Hypersensitivity to thermal and mechanical stimuli,mouse hindpaw [6],substantial and long-lasting hypersensitivity
same,Effect on neurons from TRPA1-deficient animals,"[9]; WaTx 5 μM, TRPA1−/− mouse trigeminal neuron cultures",no effect
same,"Selectivity of neuron excitation, wild-type mice","[9]; saturating dose 5μM WaTx, AITC 50μM",excited only the cohort sensitive to a selective dose of AITC
same,Binding of rsTRPA1 A627P membranes,rsTRPA1,did display binding
same,Activation of channels in cell-attached mode,"hTRPA1 [7]; cell-attached HEK cell patches, n = 12",WaTx-evoked responses in the on-cell patch configuration
same,Activation of channels in excised patches,"hTRPA1 [7]; excised outside-out / inside-out patches, bath application",activity was observed in either configuration
same,Effect on divalent over monovalent cation selectivity,hTRPA1 [7],largely abolished
same,Duration of evoked channel openings,hTRPA1 [7],≤ 20 ms
same,Average latency to first channel opening,hTRPA1 [7],"indistinguishable from that of basal, spontaneous events"
same,Toxin sensitivity of rsTRPA1 A627P,"[10]; WaTx 5 μM, whole-cell",sufficient to confer toxin sensitivity
same,Sensitivity of rat snake TRPA1 to toxin,"[10]; whole-cell patch clamp, n = 4–12 HEK cells/condition",insensitive
B1,Kd,[11],0.33 pM
same,koff,[11],7.13e-06 s⁻¹
